Like-named read-outs stand apart in the source and are kept apart here.
Key:
human O-GlcNAcase = human O-GlcNAcase (Homo sapiens (Human), UniProt O60502); assay: biochemical; assay type: biochemical; conditions: for Ki: read-out: OGA KI
[1] = biological target: O-GlcNAcase in rat PC-12 cells (Rattus norvegicus (Rat), UniProt Q8VIJ5); assay: cell-based
Description: Assay for Determination of Cellular Activity for Compounds that Inhibit O-GlcNAcase Activity
Inhibition of O-GlcNAcase, which removes O-GlcNAc from cellular proteins, results in an increase in the level of O-GlcNAcylated protein in cells. An increase in O-GlcNAcylated protein can be measured by an antibody, such as RL-2, that binds to O-GlcNAcylated protein. The amount of O-GlcNAcylated protein:RL2 antibody interaction can be measured by enzyme linked immunosorbant assay (ELISA) procedures.
A variety of tissue culture cell lines, expressing endogenous levels of O-GlcNAcase, can be utilized; examples include rat PC-12, and human U-87, or SK-N-SH cells. In this assay, rat PC-12 cells were plated in 96-well plates with approximately 10,000 cells/well. Compounds to be tested were dissolved in DMSO, either 2 or 10 mM stock solution, and then diluted with DMSO and water in a two-step process using a Tecan workstation. […] To prepare a cell lysate, the media from compound treated cells was removed, the cells were washed once with phosphate buffered saline (PBS) and then lysed for 5 minutes at room temperature in 50 μL of Phosphosafe reagent (Novagen Inc, Madison, Wis.) with protease inhibitors and PMSF. The cell lysate was collected and transferred to a new plate, which was then either coated to assay plates directly or frozen −80° C. until used in the ELISA procedure. If desired, the total protein concentration of samples is determined using 20 μL of the sample using the BCA method.
The plate was sealed and incubated at 37° C. for 2 hr with gentle shaking. The wells were then washed 3-times with 300 μl/well wash buffer. […] The plate was incubated for 60 min at 37° C. with gentle shaking. Each well was then washed 3-times with 300 μl/well wash buffer. The detection reagent was added, 100 μL/well of Amplex Ultra RED reagent (prepared by adding 30 μL of 10 mM Amplex Ultra Red stock solution to 10 ml PBS with 18 μL 3% hydrogen peroxide, H2O2). The detection reaction was incubated for 15 minutes at room temperature and then read with excitation at 530 nm and emission at 590 nm.

[2] = Assay for determination of apparent permeability (Papp), bi-directional transport; conditions: pig, LLC-PK1
[3] = rat PC-12 cells, 24 hours treatment, increase in O-GlcNAcylated protein, read-out: Cell based ELISA EC50
[4] = purified human O-GlcNAcase 0.7 nM, pH 7.0, room temperature, Cheng-Prusoff

Sequence of human O-GlcNAcase (O60502 whole entry): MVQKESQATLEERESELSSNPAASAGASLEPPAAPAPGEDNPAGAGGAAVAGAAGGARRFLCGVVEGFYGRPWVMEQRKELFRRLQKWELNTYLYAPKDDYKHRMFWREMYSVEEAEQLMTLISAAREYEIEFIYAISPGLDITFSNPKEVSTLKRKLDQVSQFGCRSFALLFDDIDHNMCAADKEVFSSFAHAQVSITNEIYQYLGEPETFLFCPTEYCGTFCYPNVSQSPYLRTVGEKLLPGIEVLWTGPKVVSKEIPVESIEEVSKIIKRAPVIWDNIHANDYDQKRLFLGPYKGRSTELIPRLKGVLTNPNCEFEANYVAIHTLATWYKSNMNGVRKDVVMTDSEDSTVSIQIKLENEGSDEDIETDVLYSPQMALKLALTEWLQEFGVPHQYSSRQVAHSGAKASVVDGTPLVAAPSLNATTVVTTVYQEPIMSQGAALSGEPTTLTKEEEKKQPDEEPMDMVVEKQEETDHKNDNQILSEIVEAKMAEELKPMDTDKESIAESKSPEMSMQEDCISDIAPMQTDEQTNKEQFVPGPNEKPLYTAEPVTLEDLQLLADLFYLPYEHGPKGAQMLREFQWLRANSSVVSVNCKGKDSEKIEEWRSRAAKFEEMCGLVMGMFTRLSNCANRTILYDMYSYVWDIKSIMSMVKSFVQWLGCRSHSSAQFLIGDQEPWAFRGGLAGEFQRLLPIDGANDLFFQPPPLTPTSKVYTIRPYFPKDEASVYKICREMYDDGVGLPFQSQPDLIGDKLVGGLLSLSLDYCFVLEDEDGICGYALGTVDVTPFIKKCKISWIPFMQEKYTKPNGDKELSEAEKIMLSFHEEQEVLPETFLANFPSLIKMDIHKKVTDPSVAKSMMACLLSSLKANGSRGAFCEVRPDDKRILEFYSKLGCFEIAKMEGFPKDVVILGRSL
Sequence of O-GlcNAcase in rat PC-12 cells (Q8VIJ5 whole entry): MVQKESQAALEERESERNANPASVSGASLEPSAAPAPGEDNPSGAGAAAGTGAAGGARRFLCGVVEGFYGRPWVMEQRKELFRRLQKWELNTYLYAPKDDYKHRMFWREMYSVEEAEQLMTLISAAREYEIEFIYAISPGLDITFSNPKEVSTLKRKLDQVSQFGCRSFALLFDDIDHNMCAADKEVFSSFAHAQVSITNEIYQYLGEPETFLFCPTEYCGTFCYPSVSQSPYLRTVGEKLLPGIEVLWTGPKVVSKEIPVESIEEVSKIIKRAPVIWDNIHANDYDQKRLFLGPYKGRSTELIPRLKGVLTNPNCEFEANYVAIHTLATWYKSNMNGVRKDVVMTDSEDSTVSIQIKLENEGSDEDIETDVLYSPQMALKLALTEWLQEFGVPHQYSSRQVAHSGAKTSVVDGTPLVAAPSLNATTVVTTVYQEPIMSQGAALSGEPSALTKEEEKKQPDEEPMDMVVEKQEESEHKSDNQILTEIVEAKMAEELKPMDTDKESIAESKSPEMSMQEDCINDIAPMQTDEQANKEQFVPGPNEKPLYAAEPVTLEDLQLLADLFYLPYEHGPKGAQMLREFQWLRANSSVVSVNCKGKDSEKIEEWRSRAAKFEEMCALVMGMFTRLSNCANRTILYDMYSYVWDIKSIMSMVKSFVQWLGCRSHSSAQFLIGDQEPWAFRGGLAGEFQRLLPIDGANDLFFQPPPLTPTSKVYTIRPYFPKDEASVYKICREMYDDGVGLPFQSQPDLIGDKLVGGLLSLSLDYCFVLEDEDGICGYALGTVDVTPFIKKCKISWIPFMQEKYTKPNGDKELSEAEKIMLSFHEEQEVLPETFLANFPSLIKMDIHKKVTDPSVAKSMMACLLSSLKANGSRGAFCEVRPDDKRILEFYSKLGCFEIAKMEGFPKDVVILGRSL

Structure (SMILES) | Ki (human O-GlcNAcase) | EC50 [1, 3] | Papp at 3 h, 1 μM [2] | Ki (human O-GlcNAcase; [4]) | also measured
CN(C)C1=N[C@@H]2[C@@H](O)[C@H](O)[C@@H](C(OCc3cccc(F)c3)C(F)(F)F)O[C@@H]2S1 (stereo in doubt) [Example 64, (3aR,5S,6S,7R,7aR)-2-(dimethylamino)-5-((S)-2,2,2-trifluoro-1-(3-fluorobenzyloxy)ethyl)-5,6,7,7a-tetrahydro-3aH-pyrano[3,2-d]thiazole-6,7-diol] | 1.32 nM | 8.43 nM | 29.9 ×10⁻⁶ cm/s |  | 
CNC1=N[C@@H]2[C@H]3OC(C)(C)O[C@@H]3[C@@H](C(OCc3ccc(F)cc3)C(F)(F)F)O[C@@H]2S1 (stereo in doubt) [Example 117, (1R,2R,6R,8S,9S)—N,11,11-trimethyl-8-[(1S)-2,2,2-trifluoro-1-[(4-fluorophenyl)methoxy]ethyl]-7,10,12-trioxa-5-thia-3-azatricyclo[7.3.0.0[2,6]]dodec-3-en-4-amine] |  |  |  |  | KI values for inhibition of O-GlcNAcase (human O-GlcNAcase; units given within the value): does not possess inhibitory activity in the aforementioned range
CN(C)C1=N[C@@H]2[C@@H](O)[C@H](O)[C@@H]([C@@H](N(C)C)C(F)(F)F)O[C@@H]2S1 [Example 17, (3aR,5R,6S,7R,7aR)-2-(dimethylamino)-5-((R)-1-(dimethylamino)-2,2,2-trifluoroethyl)-5,6,7,7a-tetrahydro-3aH-pyrano[3,2-d]thiazole-6,7-diol] |  |  | 31.2 ×10⁻⁶ cm/s | 41.9 nM | 
CN(C)C1=N[C@@H]2[C@@H](O)[C@H](O)[C@@H]([C@@H](OCCCCCF)C(F)(F)F)O[C@@H]2S1 [Example 31, (3aR,5S,6S,7R,7aR)-2-(dimethylamino)-5-((R)-2,2,2-trifluoro-1-(5-fluoropentyloxy)ethyl)-5,6,7,7a-tetrahydro-3aH-pyrano[3,2-d]thiazole-6,7-diol] |  | 22.3 nM | 31.3 ×10⁻⁶ cm/s | 4.4 nM | 
CN(C)C1=N[C@@H]2[C@@H](O)[C@H](O)[C@@H]([C@@H](OCCC3CCCCC3)C(F)(F)F)O[C@@H]2S1 [Example 34, (3aR,5S,6S,7R,7aR)-5-((R)-1-(2-cyclohexylethoxy)-2,2,2-trifluoroethyl)-2-(dimethylamino)-5,6,7,7a-tetrahydro-3aH-pyrano[3,2-d]thiazole-6,7-diol] |  | 46.4 nM | 33.3 ×10⁻⁶ cm/s | 2.27 nM | 
CN(C)C1=N[C@@H]2[C@@H](O)[C@H](O)[C@@H]([C@@H](OCc3ccccc3)C(F)(F)F)O[C@@H]2S1 [Example 39, (3aR,5S,6S,7R,7aR)-5-((R)-1-(benzyloxy)-2,2,2-trifluoroethyl)-2-(dimethylamino)-5,6,7,7a-tetrahydro-3aH-pyrano[3,2-d]thiazole-6,7-diol] |  | 36.2 nM |  | 2.43 nM | 
CN(C)C1=N[C@@H]2[C@@H](O)[C@H](O)[C@@H]([C@@H](OCc3cccnc3)C(F)(F)F)O[C@@H]2S1 [Example 42, (3aR,5S,6S,7R,7aR)-2-(dimethylamino)-5-((R)-2,2,2-trifluoro-1-(pyridin-3-ylmethoxy)ethyl)-5,6,7,7a-tetrahydro-3aH-pyrano[3,2-d]thiazole-6,7-diol] |  | 120 nM | 15.2 ×10⁻⁶ cm/s | 2.36 nM | 
CN(C)C1=N[C@@H]2[C@@H](O)[C@H](O)[C@@H]([C@@H](OCc3ccc(-c4ccccc4)cc3)C(F)(F)F)O[C@@H]2S1 [Example 44, (3aR,5S,6S,7R,7aR)-5-((R)-1-(biphenyl-4-ylmethoxy)-2,2,2-trifluoroethyl)-2-(dimethylamino)-5,6,7,7a-tetrahydro-3aH-pyrano[3,2-d]thiazole-6,7-diol] | 3.05 nM |  |  |  | 
CN(C)C1=N[C@@H]2[C@@H](O)[C@H](O)[C@@H]([C@@H](OCc3ccc(Cc4ccccc4)cc3)C(F)(F)F)O[C@@H]2S1 [Example 45, (3aR,5S,6S,7R,7aR)-5-((R)-1-(4-benzylbenzyloxy)-2,2,2-trifluoroethyl)-2-(dimethylamino)-5,6,7,7a-tetrahydro-3aH-pyrano[3,2-d]thiazole-6,7-diol] | 1.97 nM |  |  |  | EC50 [1]: 128 nM
COc1ccc(CO[C@H]([C@H]2O[C@@H]3SC(N(C)C)=N[C@@H]3[C@@H](O)[C@@H]2O)C(F)(F)F)cc1 [Example 52, (3aR,5S,6S,7R,7aR)-2-(dimethylamino)-5-((R)-2,2,2-trifluoro-1-(4-methoxybenzyloxy)ethyl)-5,6,7,7a-tetrahydro-3aH-pyrano[3,2-d]thiazole-6,7-diol] |  | 21.3 nM | 30.5 ×10⁻⁶ cm/s | 1.38 nM | 
CN(C)C1=N[C@@H]2[C@@H](O)[C@H](O)[C@@H]([C@@H](OCc3ccc(OCCF)cc3)C(F)(F)F)O[C@@H]2S1 [Example 55, (3aR,5S,6S,7R,7aR)-2-(dimethylamino)-5-((R)-2,2,2-trifluoro-1-(4-(2-fluoroethoxy)benzyloxy)ethyl)-5,6,7,7a-tetrahydro-3aH-pyrano[3,2-d]thiazole-6,7-diol] | 0.65 nM |  | 27.1 ×10⁻⁶ cm/s |  | EC50 [1]: 79.5 nM
CN(C)C1=N[C@@H]2[C@@H](O)[C@H](O)[C@@H]([C@@H](OCc3ccc(Oc4ccccc4)cc3)C(F)(F)F)O[C@@H]2S1 [Example 57, (3aR,5S,6S,7R,7aR)-2-(dimethylamino)-5-((R)-2,2,2-trifluoro-1-(4-phenoxybenzyloxy)ethyl)-5,6,7,7a-tetrahydro-3aH-pyrano[3,2-d]thiazole-6,7-diol] | 1.11 nM |  | 16.4 ×10⁻⁶ cm/s |  | EC50 [1]: 62.1 nM
COc1ccc(CO[C@H]([C@H]2O[C@@H]3SC(N(C)C)=N[C@@H]3[C@@H](O)[C@@H]2O)C(F)(F)F)cc1C(F)(F)F [Example 58, (3aR,5S,6S,7R,7aR)-2-(dimethylamino)-5-((R)-2,2,2-trifluoro-1-(4-methoxy-3-(trifluoromethyl)benzyloxy)ethyl)-5,6,7,7a-tetrahydro-3aH-pyrano[3,2-d]thiazole-6,7-diol] |  | 76.9 nM | 26.2 ×10⁻⁶ cm/s | 0.84 nM | 
CN(C)C1=N[C@@H]2[C@@H](O)[C@H](O)[C@@H]([C@@H](OCc3ccccc3F)C(F)(F)F)O[C@@H]2S1 [Example 61, (3aR,5S,6S,7R,7aR)-2-(dimethylamino)-5-((R)-2,2,2-trifluoro-1-(2-fluorobenzyloxy)ethyl)-5,6,7,7a-tetrahydro-3aH-pyrano[3,2-d]thiazole-6,7-diol] | 1.98 nM |  | 29 ×10⁻⁶ cm/s |  | EC50 [1]: 7.73 nM
CN(C)C1=N[C@@H]2[C@@H](O)[C@H](O)[C@@H]([C@@H](OCc3ccc(F)cc3)C(F)(F)F)O[C@@H]2S1 [Example 65] |  | 27.7 nM | 28.8 ×10⁻⁶ cm/s | 1.02 nM | 
CN(C)C1=N[C@@H]2[C@@H](O)[C@H](O)[C@@H]([C@@H](OCc3ccc(C(F)(F)F)cc3)C(F)(F)F)O[C@@H]2S1 [Example 66, (3aR,5S,6S,7R,7aR)-2-(dimethylamino)-5-((R)-2,2,2-trifluoro-1-(4-(trifluoromethyl)benzyloxy)ethyl)-5,6,7,7a-tetrahydro-3aH-pyrano[3,2-d]thiazole-6,7-diol] | 2.32 nM |  | 28.2 ×10⁻⁶ cm/s |  | EC50 [1]: 13.5 nM
CN(C)C1=N[C@@H]2[C@@H](O)[C@H](O)[C@@H]([C@@H](OCc3ccc(CCF)cc3)C(F)(F)F)O[C@@H]2S1 [Example 70, (3aR,5S,6S,7R,7aR)-2-(dimethylamino)-5-((R)-2,2,2-trifluoro-1-(4-(2-fluoroethyl)benzyloxy)ethyl)-5,6,7,7a-tetrahydro-3aH-pyrano[3,2-d]thiazole-6,7-diol] |  | 17.8 nM | 29.5 ×10⁻⁶ cm/s | 0.61 nM | 
CN(C)C1=N[C@@H]2[C@@H](O)[C@H](O)[C@@H]([C@@H](OCc3ccc(CCCF)cc3)C(F)(F)F)O[C@@H]2S1 [Example 71, (3aR,5S,6S,7R,7aR)-2-(dimethylamino)-5-((R)-2,2,2-trifluoro-1-(4-(3-fluoropropyl)benzyloxy)ethyl)-5,6,7,7a-tetrahydro-3aH-pyrano[3,2-d]thiazole-6,7-diol] |  | 30.8 nM | 34.6 ×10⁻⁶ cm/s | 0.78 nM | 
CN(C)C1=N[C@@H]2[C@@H](O)[C@H](O)[C@@H]([C@@](CCc3ccccc3)(OCc3ccccc3)C(F)(F)F)O[C@@H]2S1 [Example 76, (3aR,5S,6S,7R,7aR)-5-((R)-2-(benzyloxy)-1,1,1-trifluoro-4-phenylbutan-2-yl)-2-(dimethylamino)-5,6,7,7a-tetrahydro-3aH-pyrano[3,2-d]thiazole-6,7-diol] |  |  |  | 726 nM | 
CNC1=N[C@@H]2[C@@H](O)[C@H](O)[C@@H]([C@@H](OCc3ccc(C)cc3)C(F)(F)F)O[C@@H]2S1 [Example 85, (3aR,5S,6S,7R,7aR)-2-(methylamino)-5-((R)-2,2,2-trifluoro-1-(4-mcthylbenzyloxy)ethyl)-5,6,7,7a-tetrahydro-3aH-pyrano[3,2-d]thiazole-6,7-diol] |  |  | 26.3 ×10⁻⁶ cm/s | 3.11 nM | 
CNC1=N[C@@H]2[C@@H](O)[C@H](O)[C@@H]([C@@H](OCc3ccc(CCF)cc3)C(F)(F)F)O[C@@H]2S1 [Example 87, (3aR,5S,6S,7R,7aR)-2-(methylamino)-5-((R)-2,2,2-trifluoro-1-(4-(2-fluoroethyl)benzyloxy)ethyl)-5,6,7,7a-tetrahydro-3aH-pyrano[3,2-d]thiazole-6,7-diol] | 0.71 nM |  |  |  | EC50 [1]: 46.4 nM
CCNC1=N[C@@H]2[C@@H](O)[C@H](O)[C@@H]([C@@H](OCc3ccc(OC)cc3)C(F)(F)F)O[C@@H]2S1 [Example 96, (3aR,5S,6S,7R,7aR)-2-(ethylamino)-5-((R)-2,2,2-trifluoro-1-(4-methoxybenzyloxy)ethyl)-5,6,7,7a-tetrahydro-3aH-pyrano[3,2-d]thiazole-6,7-diol] |  |  | 30.1 ×10⁻⁶ cm/s | 12.5 nM | 
CNC1=N[C@@H]2[C@@H](O)[C@H](O)[C@@H]([C@](C)(O)C(F)(F)F)O[C@@H]2S1 [Example 158, (3aR,5S,6S,7R,7aR)-2-(methylamino)-5-((S)-1,1,1-trifluoro-2-hydroxypropan-2-yl)-5,6,7,7a-tetrahydro-3aH-pyrano[3,2-d]thiazole-6,7-diol] |  |  | 2.9 ×10⁻⁶ cm/s |  | Ki (human O-GlcNAcase; comparative compounds described in PCT/US11/059668): 1.29 nM

Source: US9611275B2 (priority 2012, dated 2017)
